In ChEMBL document CHEMBL4732221, “Design, synthesis and bioactivity evaluation of novel pyrazole linked phenylthiazole derivatives in context of antibacterial activity” (Bioorg Med Chem Lett, 2021):
Calls of active or inactive are those of the source. No cut-off for these calls is given here.

Experiments:
Format in all cases: functional
Pseudomonas aeruginosa [1] = assay: Antibacterial activity against Pseudomonas aeruginosa ATCC 27853 assessed as growth inhibition after 18 hrs by monochromator plate assay
Staphylococcus aureus [2] = assay: Antibacterial activity against methicillin-resistant Staphylococcus aureus ATCC 43300 assessed as growth inhibition at 32 ug/ml after 18 hrs by monochromator plate assay relative to control
Acinetobacter baumannii [3] = assay: Antibacterial activity against Acinetobacter baumannii ATCC 19606 assessed as growth inhibition at 32 ug/ml after 18 hrs by monochromator plate assay relative to control; conditions: for inhibition: dose 32.0 µg/ml
Cryptococcus neoformans [4] = assay: Antifungal activity against Cryptococcus neoformans var. grubii ATCC 208821 assessed as growth inhibition at 32 ug/ml after 36 hrs by monochromator plate assay relative to control; conditions: dose 32.0 µg/ml
Pseudomonas aeruginosa [5] = assay: Antibacterial activity against Pseudomonas aeruginosa ATCC 27853 assessed as growth inhibition at 32 ug/ml after 18 hrs by monochromator plate assay relative to control
Klebsiella pneumoniae [6] = assay: Antibacterial activity against Klebsiella pneumoniae ATCC 700603 assessed as growth inhibition at 32 ug/ml after 18 hrs by microplate reader assay relative to control; conditions: for inhibition: dose 32.0 µg/ml
Escherichia coli [7] = assay: Antibacterial activity against Escherichia coli ATCC 25922 assessed as growth inhibition after 18 hrs by monochromator plate assay
Candida albicans [8] = assay: Antifungal activity against Candida albicans ATCC 90028 assessed as growth inhibition at 32 ug/ml after 36 hrs by monochromator plate assay relative to control; conditions: for inhibition: dose 32.0 µg/ml
Escherichia coli [9] = assay: Antibacterial activity against Escherichia coli ATCC 25922 assessed as growth inhibition at 32 ug/ml after 18 hrs by monochromator plate assay relative to control; conditions: dose 32.0 µg/ml
Staphylococcus aureus [10] = assay: Antibacterial activity against methicillin-resistant Staphylococcus aureus ATCC 43300 assessed as growth inhibition after 18 hrs by monochromator plate assay
Acinetobacter baumannii [11] = assay: Antibacterial activity against Acinetobacter baumannii ATCC 19606 assessed as growth inhibition after 18 hrs by monochromator plate assay
Candida albicans [12] = assay: Antifungal activity against Candida albicans ATCC 90028 assessed as growth inhibition after 36 hrs by monochromator plate assay
Cryptococcus neoformans [13] = assay: Antifungal activity against Cryptococcus neoformans var. grubii ATCC 208821) assessed as growth inhibition after 36 hrs by monochromator plate assay relative to control
Klebsiella pneumoniae [14] = assay: Antibacterial activity against Klebsiella pneumoniae ATCC 700603 assessed as growth inhibition after 18 hrs by monochromator plate assay

SMILES | MIC (Pseudomonas aeruginosa [1]) | inhibition at 32 µg/mL (Staphylococcus aureus [2]) | inhibition at 32 µg/mL (Acinetobacter baumannii [3]) | inhibition (Cryptococcus neoformans [4]) | inhibition at 32 µg/mL (Pseudomonas aeruginosa [5]) | inhibition at 32 µg/mL (Klebsiella pneumoniae [6]) | MIC (Escherichia coli [7]) | inhibition at 32 µg/mL (Candida albicans [8]) | inhibition (Escherichia coli [9]) | MIC (Staphylococcus aureus [10]) | MIC (Acinetobacter baumannii [11]) | MIC (Candida albicans [12]) | MIC (Cryptococcus neoformans [13]) | MIC (Klebsiella pneumoniae [14]) | inhibition (Acinetobacter baumannii [3]) | inhibition (Klebsiella pneumoniae [6]) | inhibition (Pseudomonas aeruginosa [5]; dose 32.0 µg/ml) | inhibition (Candida albicans [8])
Cc1nc(-c2ccc(I)cc2)sc1-c1cc(C(=O)NN2CCOCC2)n[nH]1 | > 32 µg/mL | 15.7% | 2.8% | inactive | 10.1% | 8.4% | inactive | 3.5% | inactive | > 32 µg/mL | > 32 µg/mL | > 32 µg/mL | inactive | > 32 µg/mL | – | – | – | –
Cc1nc(-c2ccc(-c3ccccc3)cc2)sc1-c1cc(C(=O)Nc2ccc(C(F)(F)F)cc2)n[nH]1 | > 32 µg/mL | 9.9% | – | inactive | 2.8% | 0.8% | inactive | 4.3% | inactive | > 32 µg/mL | inactive | > 32 µg/mL | inactive | > 32 µg/mL | inactive | – | – | –
CCCCc1ccc(NC(=O)c2cc(-c3sc(-c4ccc(-c5ccccc5)cc4)nc3C)[nH]n2)cc1 | > 32 µg/mL | 9.5% | 4.1% | inactive | 5.6% | 3.3% | inactive | 13.5% | inactive | > 32 µg/mL | > 32 µg/mL | > 32 µg/mL | inactive | > 32 µg/mL | – | – | – | –
COC(=O)c1cc(-c2sc(-c3ccc(I)cc3)nc2C)[nH]n1 | > 32 µg/mL | 14.2% | 4.9% | inactive | 6.6% | – | inactive | 5.1% | inactive | > 32 µg/mL | > 32 µg/mL | > 32 µg/mL | inactive | inactive | – | inactive | – | –
Cc1nc(-c2ccc(I)cc2)sc1-c1cc(C(=O)NC2CCCCC2)n[nH]1 | > 32 µg/mL | 12.9% | – | inactive | 17.8% | 6.9% | inactive | 40.5% | inactive | > 32 µg/mL | inactive | > 32 µg/mL | inactive | > 32 µg/mL | inactive | – | – | –
Cc1nc(-c2ccc(-c3ccccc3)cc2)sc1-c1cc(C(=O)NCC2CCCCC2)n[nH]1 | inactive | 4.1% | – | inactive | – | – | inactive | – | inactive | > 32 µg/mL | inactive | inactive | inactive | inactive | inactive | inactive | inactive | inactive
CCOC(=O)c1cc(-c2sc(-c3ccc(I)cc3)nc2C)[nH]n1 | > 32 µg/mL | 16.4% | 6.6% | inactive | 16.6% | 15.1% | inactive | 7.8% | inactive | > 32 µg/mL | > 32 µg/mL | > 32 µg/mL | inactive | > 32 µg/mL | – | – | – | –
Cc1nc(-c2ccc(-c3cccc4c3OCO4)cc2)sc1-c1cc(C(=O)NC2CCCCC2)n[nH]1 | > 32 µg/mL | 41.2% | – | inactive | 6.2% | – | inactive | 0.9% | inactive | > 32 µg/mL | inactive | > 32 µg/mL | inactive | inactive | inactive | inactive | – | –
Cc1nc(-c2ccc(-c3ccccc3)cc2)sc1-c1cc(C(=O)NC2CCCCC2)n[nH]1 | > 32 µg/mL | 84.9% | 2.9% | inactive | 6.6% | 6.9% | inactive | – | inactive | > 32 µg/mL | > 32 µg/mL | inactive | inactive | > 32 µg/mL | – | – | – | inactive
